Assay results reported in patent US9012458B2, “Antitumor agent using compounds having kinase inhibitory effect in combination” (Eisai R&D Management Co., Ltd., priority 2010, dated 2015).
Counter-ions that a name gives are not always drawn.

Columns and labels:
Type in all cases: in vivo
[1] = system: human malignant melanoma cell line (SEKI); test: Combined effect in model animal transplanted with human malignant melanoma cell line (SEKI); conditions: SEKI s.c. in nude mouse, Compound A 10 mg/kg, Compound B 100 mg/kg, oral once daily, average ± standard deviation
Experimental: (§1) The human malignant melanoma cell line SEKI (JCRB Cell bank) was cultured using a 10% FBS-containing RPM 1640 medium (SIGMA) in a 5% CO2 incubator under the condition of 37° C. When the cells reached a state of approximately 80% confluency, the cells were collected using trypsin-EDTA. To these cells, a Hanks' Balanced Salt Solution containing 50% Matrigel was added to prepare a suspension at 5.0×10^7 cells/mL. The cell suspension thus obtained was subcutaneously transplanted at the lateral side of the body of a nude mouse (CAnN.Cg-Foxn1nu/CrlCrlj, Charles River Laboratories Japan, Inc.) in an amount of 0.1 mL, where each group contained six mice. From 11 days after the transplantation, Compound A (10 mg/kg, once daily, for 17 days) and Compound B (100 mg/kg, once daily, for 17 days) were orally administered, either individually or both in a row.
(§2) Setting the initial day of administration at Day 0, the major axis and the minor axis of a tumor developed in each mouse were measured using Digimatic caliper (Mitsutoyo Corporation) thereafter on Day 3, 7, 10, 14, and 17.
(§3) The tumor volume and the relative tumor volume were calculated according to the equations below. TV=major axis (mm)×minor axis^2 (mm^2)/2 RTV=TV on the day of measurement/TV on the initial day of administration

[2] = system: human gastric cancer cell line (IM95m); test: Combined effect in model animal transplanted with human gastric cancer cell line (IM95m); conditions: IM95m s.c. in nude mouse, Compound A 10 mg/kg, Compound B 100 mg/kg, oral once daily, average ± standard deviation
Experimental: The human gastric cancer cell line IM95m (Health Science Research Resources Bank) was cultured using a DMEM medium (Wako Pure Chemical Industries, Ltd) containing […] glucose, 10% FBS, and 10 μg/mL insulin in a 5% CO2 incubator under the condition of 37° C. When the cells reached a state of approximately 80% confluency, the cells were collected using trypsin-EDTA. To these cells, a Hanks' Balanced Salt Solution containing 50% Matrigel was added to prepare a suspension at 1.0×10^8 cells/mL. The cell suspension thus obtained was subcutaneously transplanted at the lateral side of the body of a nude mouse (CAnN.Cg-Foxn1nu/CrlCrlj, Charles River Laboratories Japan, Inc.) in an amount of 0.1 mL, where each group contained six mice. From 13 days after the transplantation, Compound A (10 mg/kg, once daily, for 21 days) and Compound B (100 mg/kg, once daily, for 21 days) were orally administered continuously, either individually or both in a row.
Setting the initial day of administration at Day 0, the major axis and the minor axis of a tumor developed in each mouse were measured using Digimatic caliper (Mitsutoyo Corporation) thereafter on Day 4, 7, 11, 14, 18 and 21.
as §3

[3] = system: human pancreatic cancer cell line (KP-4); test: Combined effect in model animal transplanted with human pancreatic cancer cell line (KP-4); conditions: KP-4 s.c. in nude mouse, Compound A 10 mg/kg, Compound B 100 mg/kg, oral once daily, average ± standard deviation
Experimental: as §1, with “pancreatic cancer” for “malignant melanoma”, “KP-4 (acquired from National Hospital Organization Kyushu Cancer Center)” for “SEKI (JCRB Cell bank)”, “RPMI” for “RPM”
as §2, §3

[4] = system: human ovarian cancer cell line (A2780); test: Combined effect in model animal transplanted with human ovarian cancer cell line (A2780); conditions: A2780 s.c. in nude mouse, Compound A 10 mg/kg, Compound B 100 mg/kg, oral once daily, average ± standard deviation
Experimental: The human ovarian cancer cell line A2780 (ATCC) was cultured using a 10% FBS-containing RPMI 1640 medium (SIGMA) in a 5% CO2 incubator under the condition of 37° C. When the cells reached a state of approximately 80% confluency, the cells were collected using trypsin-EDTA. To these cells, a Hanks' Balanced Salt Solution containing 50% Matrigel was added to prepare a suspension at a concentration of 5.0×10^7 cells/mL. The cell suspension thus obtained was subcutaneously transplanted at the lateral side of the body of a nude mouse (CAnN.Cg-Foxn1nu/CrlCrlj, Charles River Laboratories Japan, Inc.) in an amount of 0.1 mL, where each group contained six mice. Compound A (10 mg/kg, once daily, for 10 days) and Compound B (100 mg/kg, once daily, for 10 days) were orally administered, either individually or both in a row.
Setting the initial day of administration at Day 0, the major axis and the minor axis of a tumor developed in each mouse were measured using Digimatic caliper (Mitsutoyo Corporation) thereafter on Day 3, 5, 8, and 10.
as §3

| Compound | RTV (relative tumor volume) Day 3 [1] | RTV (relative tumor volume) Day 7 [1] | RTV (relative tumor volume) Day 10 [1] | RTV (relative tumor volume) Day 14 [1] | RTV (relative tumor volume) Day 17 [1] | RTV (relative tumor volume) Day 4 [2] | RTV (relative tumor volume) Day 7 [2] | RTV (relative tumor volume) Day 11 [2] | RTV (relative tumor volume) Day 14 [2] | RTV (relative tumor volume) Day 18 [2] | RTV (relative tumor volume) Day 21 [2] | RTV (relative tumor volume) Day 3 [3] | RTV (relative tumor volume) Day 7 [3] | RTV (relative tumor volume) Day 10 [3] | RTV (relative tumor volume) Day 14 [3] | RTV (relative tumor volume) Day 17 [3] | RTV (relative tumor volume) Day 3 [4] | RTV (relative tumor volume) Day 5 [4] | RTV (relative tumor volume) Day 8 [4] | RTV (relative tumor volume) Day 10 [4] |
| --- | --- | --- | --- | --- | --- | --- | --- | --- | --- | --- | --- | --- | --- | --- | --- | --- | --- | --- | --- | --- |
| COc1cc2nccc(Oc3ccc(NC(=O)NC4CC4)c(Cl)c3)c2cc1C(N)=O [Compound A, 4-(3-chloro-4-(cyclopropylaminocarbonyl)aminophenoxy)-7-methoxy-6-quinolinecarboxamide mesylate] | 1.71 ± 0.19 | 2.88 ± 0.35 | 3.74 ± 0.53 | 5.06 ± 0.49 | 5.92 ± 0.50 | 1.53 ± 0.12 | 2.10 ± 0.18 | 2.65 ± 0.37 | 2.65 ± 0.49 | 2.80 ± 0.47 | 3.18 ± 0.57 | 1.67 ± 0.16 | 2.89 ± 0.74 | 3.77 ± 1.26 | 4.83 ± 1.75 | 5.81 ± 2.17 | 1.92 ± 0.17 | 4.77 ± 0.85 | 9.51 ± 2.44 | 12.37 ± 3.53 |
| CN1CCN(C2CCN(C(=O)Nc3cc(Oc4ccc(NC(=O)C5(C(=O)Nc6ccc(F)cc6)CC5)c(F)c4)ccn3)CC2)CC1 [Compound B, N-(2-fluoro-4-{[2-({[4-(4-methylpiperazin-1-yl)piperidin-1-yl]carbonyl}amino)pyridin-4-yl]oxy}phenyl)-N′-(4-fluorophenyl)cyclopropane-1,1-dicarboxamide tartrate] | 1.76 ± 0.22 | 2.93 ± 0.57 | 4.06 ± 0.85 | 5.23 ± 0.20 | 5.80 ± 1.35 | 1.12 ± 0.08 | 1.24 ± 0.15 | 1.75 ± 0.17 | 1.85 ± 0.16 | 3.09 ± 0.48 | 4.02 ± 1.05 | 1.71 ± 0.26 | 3.33 ± 1.06 | 4.72 ± 1.55 | 6.53 ± 2.19 | 9.05 ± 3.71 | 2.23 ± 0.42 | 7.01 ± 1.54 | 15.70 ± 2.27 | 21.29 ± 2.76 |
